From patent US7173063B1, “Topoisomerase poisons for the treatment of proliferative disorders” (Fred Hutchinson Cancer Research Center, priority 2000, dated 2007)
Where two headings read alike, the source gives them in different places.

Columns and labels:
[1] = system: DSB repair defective rad50 and rad52 strains of Saccharomyces cerevisiae; assay type: cell-based; conditions: for toxicity in wild-type strains: highest concentration used
Source text: (§1) The strains are derived from the A364a genetic background, with the exception of BY4705, which is derived from the S288C background. Gene disruptions were generated by PCR fragment directed replacement (Baudin, et al., Nucleic Acids Research 21: 3329–30 (1993), Guldener, et al., Nucleic Acids Research 24: 2519–24 (1996)). Yeast overexpressing topoisomerase II was constructed by a PCR fragment directed promoter replacement of the topoisomerase II promoter with the yeast GPD promoter flanked upstream by the URA3 marker. All strains (except BY4705) bear the pleitropic drug sensitizing mutations erg6, pdr1, and pdr3 (Balzi, et al., Journal of Bioenergetics & Biomembranes 27: 71–6 (1995), Delaveau, et al, Molecular & General Genetics 244: 501–11 (1994), Gaber, et al., Molecular & Cellular Biology 9: 3447–56 (1989), Saunders, et al., Canadian Journal of Genetics & Cytology, 24: 493–503 (1982). Subik, et al, Current Genetics 10: 665–70 (1986)). The haploid yeast strain BY4705 (Brachmann, et al., Yeast 14: 115–32 (1998)) was used in the experiments described in FIG. 5. Plasmids expressing yeast or human topoisomerase I genes under the GAL promoter (Knab, et al., Journal of Biological Chemistry 268: 22322–30 (1993). Knab, et al., Journal of Biological Chemistry 270: 6141–8 (1995)) were transformed into BY4705 using standard procedures.
Yeast toxicity assays were performed essentially as follows: Exponentially growing cultures of the appropriate strains were diluted in synthetic complete media to a concentration of 7.4×10^4 cells/mL, and aliquots (135 μL) were transferred to each well of clear flat-bottomed 96 well plates. Compounds were added in duplicate or triplicate as 15 μL of the appropriate dilution in 5% DMSO. A 15 μL portion of 5% DMSO was added to control wells. […] Cell growth (OD660) in treated wells was plotted as a percentage of the growth in at least four averaged solvent control wells for the same strain. Camptothecin sodium salt (camptothecin Na) was the agent used in all yeast assays as standard.

Topo I = target: T1, Topo I (Saccharomyces cerevisiae, UniProt P04786); assay: Yeast toxicity in strains with or without Topo I (rad50 vs rad50 top1); assay type: cell-based; conditions: rad50 top1 vs rad50 strain
T1 construct: yeast strains that are DSB repair defective, with (rad50) or without Topo I (rad50, top1), and a wild type control (wt); endogenous in cells; host or cells: S. cerevisiae A364a background, rad50 (erg6 pdr1 pdr3), compared with rad50 top1
T1 sequence (P04786 1-769): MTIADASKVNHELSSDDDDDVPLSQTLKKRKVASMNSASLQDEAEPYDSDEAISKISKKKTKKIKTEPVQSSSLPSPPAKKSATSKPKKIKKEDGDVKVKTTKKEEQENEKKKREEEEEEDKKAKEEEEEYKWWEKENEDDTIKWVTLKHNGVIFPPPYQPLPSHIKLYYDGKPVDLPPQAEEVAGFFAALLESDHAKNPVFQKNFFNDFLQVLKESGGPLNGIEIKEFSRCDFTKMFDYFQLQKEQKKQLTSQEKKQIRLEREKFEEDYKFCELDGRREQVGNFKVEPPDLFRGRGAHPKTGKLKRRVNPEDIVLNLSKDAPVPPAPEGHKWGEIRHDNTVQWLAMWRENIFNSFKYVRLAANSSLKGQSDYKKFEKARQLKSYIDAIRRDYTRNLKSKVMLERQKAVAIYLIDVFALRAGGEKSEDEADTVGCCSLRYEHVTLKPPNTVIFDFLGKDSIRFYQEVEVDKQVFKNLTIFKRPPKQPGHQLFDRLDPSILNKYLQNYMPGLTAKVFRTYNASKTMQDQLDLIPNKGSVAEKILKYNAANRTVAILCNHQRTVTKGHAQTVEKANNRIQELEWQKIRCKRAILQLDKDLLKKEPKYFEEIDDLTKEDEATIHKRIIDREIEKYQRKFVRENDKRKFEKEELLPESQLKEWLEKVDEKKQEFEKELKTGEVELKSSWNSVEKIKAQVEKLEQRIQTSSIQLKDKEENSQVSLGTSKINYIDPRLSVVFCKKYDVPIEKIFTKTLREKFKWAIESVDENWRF
Source text: as §1
Yeast toxicity assays were performed essentially as follows: Exponentially growing cultures of the appropriate strains were diluted in synthetic complete media to a concentration of 7.4×10^4 cells/mL, and aliquots (135 μL) were transferred to each well of clear flat-bottomed 96 well plates. Compounds were added in duplicate or triplicate as 15 μL of the appropriate dilution in 5% DMSO. A 15 μL portion of 5% DMSO was added to control wells. Assay plates were incubated at 30° C. for approximately seven generations growth in solvent control wells (as monitored by OD660, typically 21–24 hours), then the OD660 of the cultures was measured in a microplate reader (Bio-Tek). […]

[2] = relative growth (OD660) vs solvent control

Row | SMILES | toxicity in wild-type strains [1] | profile of selective toxicity: toxic to rad50 and rad52 strains, not toxic in rad14 or rad18 strains [1, 2] | effect of deletion of the TOP1 gene on toxicity (Topo I) | influence of sensitizing mutations erg6 pdr1 and pdr3 on yeast sensitivity [1] | profile of selective toxicity: toxic to rad50 and rad52 strains, not toxic in rad14 or rad18 strains [1]
1 | O=c1c(Cl)c(Cl)cnn1CCCl [compound IIa] | neither compounds Ia or IIa produce toxicity | fit the profile for selective toxicity | greatly reduced |  | 
2 | O=C(CCl)Nc1ccc(C(=O)N/N=C/c2ccc(Cl)cc2)cc1 [compound Ia] | neither compounds Ia or IIa produce toxicity | fit the profile for selective toxicity | greatly reduced | strongly influenced | 
3 | CC(=O)[C@]1(O)Cc2c(O)c3c(c(O)c2[C@@H](O[C@H]2C[C@H](N)[C@H](O)[C@H](C)O2)C1)C(=O)c1ccccc1C3=O [idarubicin, reference compound] |  |  | little effect |  | Agents with this profile include
